What all share (type): cell-based, human
Experiment [1] has as its system CD8+ cells of MS patients. Briefly: Transwell migration assay with PBMC of MS patients, CD8+ cells. The settings on record: PBMC of treatment-naive MS patients; too few cells to test significance. Here is the method: (§1) 5 Activity of the novel VhTI-pep 2 and pepitem on patient lymphocytes. PPBMCs were isolated from the blood of MS patients with a very recent disease flare receiving no immunosuppressive or immunomodulatory treatment in the past. The effect of the linear pepitem and VhTI-pep 2 was tested for the T-cell populations (A) CD3^+, (B) Th1, (C) CD4^+, (D) memory CD4^+, (E) CD8^+, and (F) memory CD8^+ cells. Data are shown as mean ± SD for 4 independent measurements. Statistical analysis was performed on the level of total counted cells using repeated measures one-way ANOVA with Dunnett’s post hoc test. Statistical significance is indicated as n.s. (not significant), * p < 0.05; ** p < 0.01; *** p < 0.001.
(§2) Human microvascular endothelial cells (HMEC-1 cells, Cytion, Eppelheim, Germany) were cultured in MCDB-131 medium (with 2.2 g/L sodium bicarbonate, without L-glutamine, PAN-Biotech Aidenbach, Germany) supplemented with 10% fetal bovine serum (FBS, Capricorn Scientific, Ebsdorfergrund, Germany), 100 units/ml penicillin-streptomycin (Sigma-Aldrich) 10 ng/mL epidermal growth factor (BioLegend, San Diego, US), 1 μg/mL hydrocortisone (Sigma-Aldrich), and 10 mM L-glutamine (Sigma-Aldrich). For experiments, the cells were used between passage numbers 4–9. […]

Experiment [2] concerns CD4+ cells of MS patients. Briefly: Transwell migration assay with PBMC of MS patients, CD4+ cells. The settings on record: PBMC of treatment-naive MS patients; p = 0.0005. Here is the method:
as §1, §2

Experiment [3] relates to CD4+ lymphocytes (CD3+, CD4+). To be noted: for % Inhibition of cell migration compared to control, CD4+: normalized to untreated control, mean ± SEM of 4-6 experiments. Here is the method:
Transwell migration assays were performed similarly as published previously. HMEC-1 cells were seeded at a density of 75,000 cells per well in transwell inserts. Three days after cell seeding, the medium was changed, and the cells were stimulated with 100 ng/mL TNF-α and 20 ng/mL IFN-γ for 16–18 h. On the day of the assay, cells were washed with migration medium (serum-free RPMI medium supplemented with 0.1% BSA) to remove residual cytokines and starved for at least 1 h at 37 °C in migration medium. PBMC were starved for at least 1.5 h in migration medium before addition to the EC. For S1P and lifitegrast-treated samples, the PBMC were preincubated for at least 1.5 h at 37 °C with the ligands before addition to the EC. Pepitem and other peptides were added onto the EC monolayer and preincubated for 15–30 min at 37 °C before the addition of the PBMC. 200,000 PBMC per well were added directly on top of the EC prestimulated with pepitem or other peptides to reach a final volume of 150 μL in the donor compartments. The receiver compartments of the wells were filled with 600 μL RPMI with 20% FBS. After 4 h of migration at 37 °C, the receiver compartment with the migrated cells was collected. The migrated cells were stained with the indicated antibodies: CD3-APC (clone: OKT3, lot: B400127), CD4-PE (clone: OKT4. lot: B379180), CD8-FITC (clone: HIT8a, lot: B370193) from Biolegend and CD3-VioGreen (clone: REA613, lot: 5240502518), CD45RO-FITC (clone: REA611, lot: 5240502519), CD4-PerCP-Vio700 (clone: REA623, lot: 5240506702), CXCR3 PE-Vio615 (clone: REA232, lot: 5240506722), CD196-APC (clone: REA190, lot: 5240506717), CD8-APC-Vio770 (clone: REA734, lot: 5240303993) and CD45RO-PEVio616 (clone: REA611, lot: 5231102514) from Miltenyi Biotec (Bergisch Gladbach, Germany) and counted using precision counting beads (Biolegend) on a CytoflexS flow cytometer (BeckmanCoulter). Data was analyzed using CytExpert (Version 2.4). T cells were gated as CD3^+ cells, T cell subsets were gated as CD4^+ (CD3^+, CD4^+), CD8^+ (CD3^+, CD8^+), memory CD4^+ (CD3^+, CD4^+, CD45RO^+), memory CD8^+ (CD3^+, CD8^+, CD45RO^+) and Th1 cells (CD3^+, CD4^+, CXCR3^+, CCR6^–).
Data were analyzed using GraphPad Prism software. EC50 values were calculated by three-parameter nonlinear regression analysis. For this, the data points were normalized to the number of migrated cells in untreated (buffer) control samples (100%), and the regression was fitted with the top constraint to 100 and the slope fixed to 1. Statistical significance is indicated in graphs as n.s. not significant, * p < 0.05; ** p < 0.01; *** p < 0.001. The statistical tests used are indicated in the respective figure captions.

The values below come from publication PMC12406255, “Engineering Peptide Modulators for T‑Cell Migration by Structural Scaffold Matching” (Journal of Medicinal Chemistry, 2025).

Read-outs that look alike come from different tables or passages of the source. Positions of bridges follow the written chain, without caps; N, C: chain ends. Non-standard residues stand in square brackets, D forms with d. Residues, ends and D or L forms follow the SMILES beside them. Nle = CCCC[C@H](N)C(=O)O

`CCCC[C@@H]1NC(=O)[C@H](C(C)C)NC(=O)[C@H](CCCCN)NC(=O)[C@@H](NC(=O)[C@H](CCC(N)=O)NC(=O)[C@H](CCC(=O)O)NC(C)=O)CSSC[C@@H](C(=O)N[C@@H](CCC(=O)O)C(=O)N[C@@H](CCCCN)C(N)=O)NC(=O)[C@H](CC(N)=O)NC(=O)[C@H](CC(=O)O)NC(=O)[C@H](CC(C)C)NC(=O)[C@@H]2CSSC[C@H](NC1=O)C(=O)N[C@@H](Cc1ccc(O)cc1)C(=O)N[C@@H](C)C(=O)N[C@@H](CCC(N)=O)C(=O)NCC(=O)N[C@@H](C)C(=O)N[C@@H](CCC(=O)O)C(=O)N[C@@H](CC(C)C)C(=O)N1CCC[C@H]1C(=O)N[C@@H](CCC(=O)O)C(=O)N[C@@H](CC(C)C)C(=O)N[C@@H](CC(C)C)C(=O)N[C@@H](CCCNC(=N)N)C(=O)N[C@@H](CCCNC(=N)N)C(=O)N2` [VhTI-pep 2] (Ac-EQCKV[Nle]CYAQGAELPELLRRCLDNCEK-NH2; disulfide 3-25, 7-21): the “migration of CD8+ cells of MS patients (in words)” value in experiment [1] was “positive trend”. In addition, the “migration of CD4+ cells of MS patients (in words)” value in experiment [2] is recorded as “significantly reduced”. Moreover, the entries for the “% Inhibition of cell migration compared to control, CD4+” value in experiment [3] (0.1 μM) and in experiment [3] (1 μM) were 34.3 ± 8.0% and 33.2 ± 6.1%, respectively. The EC50 in experiment [3] (EC monolayer pretreated with peptide, healthy-donor PBMC, 4 h, mean ± SD, 4 independent measurements, read-out: EC50, inhibition of CD4+ cell migration) turned out to be 0.0105 ± 0.0159 µM. Besides, the “maximal effect of inhibition of cell migration, CD4+ lymphocytes” value in experiment [3] (from the concentration-response experiment) is given as 39.9 ± 12.5%.
